The values below are quoted from earlier work in patent US20210008081A1, “ORAL LIQUID FORMULATIONS OF ABIRATERONE” (LEIUTIS PHARMACEUTICALS PVT, LTD, priority 2018, published 2021).

Take `CC(=O)O[C@H]1CC[C@@]2(C)C(=CC[C@@H]3[C@@H]2CC[C@]2(C)C(c4cccnc4)=CC[C@@H]32)C1` [Abiraterone acetate]: the “Solubility in organic solvents” value is given as “sparingly soluble to freely soluble” and the Solubility in water entry is “practically insoluble”. For the same compound, where the note is “low solubility low permeability”, the “Biopharmaceutical classification system class” value is reported as “class IV”. In addition, the “Solubility in aqueous media” value (over a wide range of pH) is listed as “practically insoluble”.
